What was measured:
[1] = biological target: T1, Amine oxidase [flavin-containing] A (Rattus norvegicus, UniProt P21396); assay: Competitive inhibition of MAO-A in rat liver mitochondria using p-tyramine as substrate up to 0.15 uM preincubated for 10 mins followed by substrate addition measured after 30 mins by Lineweaver-burk plot analysis; conditions: 0.5 h
T1 sequence (P21396 whole entry): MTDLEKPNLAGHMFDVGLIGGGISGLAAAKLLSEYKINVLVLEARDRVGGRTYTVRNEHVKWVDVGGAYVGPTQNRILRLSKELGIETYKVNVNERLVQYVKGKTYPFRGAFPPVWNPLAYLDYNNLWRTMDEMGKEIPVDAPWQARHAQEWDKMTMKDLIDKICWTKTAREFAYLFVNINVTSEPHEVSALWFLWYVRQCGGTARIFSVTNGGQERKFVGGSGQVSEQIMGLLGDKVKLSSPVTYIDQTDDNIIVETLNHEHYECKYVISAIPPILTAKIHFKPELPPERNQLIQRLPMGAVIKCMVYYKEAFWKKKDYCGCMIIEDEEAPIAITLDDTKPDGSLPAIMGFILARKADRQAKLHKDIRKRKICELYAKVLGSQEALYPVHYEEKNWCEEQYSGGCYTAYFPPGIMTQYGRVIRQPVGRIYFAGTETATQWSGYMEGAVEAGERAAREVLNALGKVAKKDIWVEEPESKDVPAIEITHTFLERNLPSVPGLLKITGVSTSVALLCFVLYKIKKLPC

[2] = biological target: T1, Amine oxidase [flavin-containing] A; assay: Inhibition of MAO-A in rat liver mitochondria using p-tyramine as substrate preincubated for 10 mins followed by substrate addition measured after 30 mins in presence of MAO-B inhibitor deprenyl by Amplex red dye-based fluorescence assay
[3] = biological target: T2, Amine oxidase [flavin-containing] B (Rattus norvegicus, UniProt P19643); assay: Inhibition of MAO-B in rat liver mitochondria using p-tyramine as substrate preincubated for 10 mins followed by substrate addition measured after 30 mins in presence of MAO-A inhibitor clorgyline by Amplex red dye-based fluorescence assay
T2 sequence (P19643 whole entry): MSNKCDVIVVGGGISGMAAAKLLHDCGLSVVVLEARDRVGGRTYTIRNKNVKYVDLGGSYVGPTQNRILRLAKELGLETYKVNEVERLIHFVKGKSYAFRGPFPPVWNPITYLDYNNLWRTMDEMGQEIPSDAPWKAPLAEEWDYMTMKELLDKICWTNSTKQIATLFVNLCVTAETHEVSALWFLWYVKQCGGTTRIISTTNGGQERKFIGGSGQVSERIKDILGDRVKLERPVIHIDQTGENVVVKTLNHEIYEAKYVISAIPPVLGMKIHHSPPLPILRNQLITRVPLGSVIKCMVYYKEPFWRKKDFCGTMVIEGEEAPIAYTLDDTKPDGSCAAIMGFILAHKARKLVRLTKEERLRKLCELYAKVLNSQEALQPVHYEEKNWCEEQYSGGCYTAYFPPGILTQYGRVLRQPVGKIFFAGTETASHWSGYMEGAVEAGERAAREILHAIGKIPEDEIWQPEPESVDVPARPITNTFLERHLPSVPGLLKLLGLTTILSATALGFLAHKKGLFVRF

Rattus norvegicus = organism: Rattus norvegicus; assay: Selectivity index, ratio of IC50 for MAO-A in rat liver mitochondria to IC50 for MAO-B in rat liver mitochondria

With `C/C(=N\NC(=O)C1=C(O)c2ccccc2S(=O)(=O)N1)c1ccccc1` the “inhibition (INH)” value [1] was “Active”, the IC50 [2] was 0.11 µM and the IC50 [3] was 3.33 µM. For the same compound, the Ratio IC50 (Rattus norvegicus) was 0.03.

`O=C(N/N=C/c1ccccc1)C1=C(O)c2ccccc2S(=O)(=O)N1` showed an IC50 [2] of 1.91 µM, an IC50 [3] of 8.86 µM and a Ratio IC50 (Rattus norvegicus) of 0.21.

In the case of `O=C(NN=C1CCCC1)C1=C(O)c2ccccc2S(=O)(=O)N1Cc1ccccc1`, the IC50 [2] is reported as ≥ 100 µM, the IC50 [3] is reported as 0.99 µM and the Ratio IC50 (Rattus norvegicus) is reported as > 101.

Compound `CC(C)c1ccc(/C=N/NC(=O)C2=C(O)c3ccccc3S(=O)(=O)N2C)cc1` has an IC50 [2] of 0.44 µM, an IC50 [3] of 18.2 µM and a Ratio IC50 (Rattus norvegicus) of 0.02.

`CCOc1ccc(/C=N/NC(=O)C2=C(O)c3ccccc3S(=O)(=O)N2C)cc1` was tested, and the IC50 [2] was 0.32 µM, the IC50 [3] was 0.76 µM and the Ratio IC50 (Rattus norvegicus) was 0.42.

`CN1C(C(=O)N/N=C/c2ccccc2O)=C(O)c2ccccc2S1(=O)=O` showed an IC50 [2] of 11.4 µM, an IC50 [3] of 3.41 µM and a Ratio IC50 (Rattus norvegicus) of 3.34.

In the case of `COC(=O)CN1C(=O)c2ccccc2S1(=O)=O`, the IC50 [2] is reported as 1.11 µM, the IC50 [3] is reported as 0.27 µM and the Ratio IC50 (Rattus norvegicus) is reported as 4.11.

Work on `CN1C(C(=O)N/N=C/c2ccccc2)=C(O)c2ccccc2S1(=O)=O` yielded an IC50 [2] of 21.1 µM, an IC50 [3] of 1.76 µM and a Ratio IC50 (Rattus norvegicus) of 11.9.

Compound `CN1C(C(=O)N/N=C/c2cccc(Cl)c2)=C(O)c2ccccc2S1(=O)=O` has an IC50 [2] of 29.8 µM, an IC50 [3] of 38.3 µM and a Ratio IC50 (Rattus norvegicus) of 0.78.

With `O=C(N/N=C/c1ccccc1O)C1=C(O)c2ccccc2S(=O)(=O)N1` the IC50 [2] was 5.07 µM, the IC50 [3] was 9.47 µM and the Ratio IC50 (Rattus norvegicus) was 0.53.

For `CN1C(C(=O)NN=C2CCCC2)=C(O)c2ccccc2S1(=O)=O`, the IC50 [2] was 0.38 µM, the IC50 [3] was 8.61 µM and the Ratio IC50 (Rattus norvegicus) was 0.04.

In the case of `COc1ccc(/C=N/NC(=O)C2=C(O)c3ccccc3S(=O)(=O)N2C)cc1`, the IC50 [2] is reported as 18.9 µM, the IC50 [3] is reported as 23.1 µM and the Ratio IC50 (Rattus norvegicus) is reported as 0.82.

`CCOc1ccc(/C=N/NC(=O)C2=C(O)c3ccccc3S(=O)(=O)N2)cc1` showed an IC50 [2] of 16.9 µM, an IC50 [3] of 9.31 µM and a Ratio IC50 (Rattus norvegicus) of 1.81.

`O=C(N/N=C/c1cccc(Cl)c1)C1=C(O)c2ccccc2S(=O)(=O)N1` gave an IC50 [2] of 0.35 µM, an IC50 [3] of 39.3 µM and a Ratio IC50 (Rattus norvegicus) of 0.01.

For `C/C(=N\NC(=O)C1=C(O)c2ccccc2S(=O)(=O)N1C)c1ccc(F)cc1`, the IC50 [2] was 10.8 µM, the IC50 [3] was 25.1 µM and the Ratio IC50 (Rattus norvegicus) was 0.43.

`COC(=O)C1=C(O)c2ccccc2S(=O)(=O)N1C` showed an IC50 [2] of 26.6 µM, an IC50 [3] of 23.1 µM and a Ratio IC50 (Rattus norvegicus) of 1.15.

Compound `C/C(=N\NC(=O)C1=C(O)c2ccccc2S(=O)(=O)N1)c1ccc(F)cc1` has an IC50 [2] of 53.4 µM, an IC50 [3] of 40.3 µM and a Ratio IC50 (Rattus norvegicus) of 1.32.

In the case of `CC(C)c1ccc(/C=N/NC(=O)C2=C(O)c3ccccc3S(=O)(=O)N2Cc2ccccc2)cc1`, the IC50 [2] is reported as 5.07 µM, the IC50 [3] is reported as 36.8 µM and the Ratio IC50 (Rattus norvegicus) is reported as 0.13.

For `C/C(=N\NC(=O)C1=C(O)c2ccccc2S(=O)(=O)N1Cc1ccccc1)c1ccccc1`, the IC50 [2] was 1.22 µM, the IC50 [3] was 2.26 µM and the Ratio IC50 (Rattus norvegicus) was 0.54.

For `COC(=O)C1=C(O)c2ccccc2S(=O)(=O)N1Cc1ccccc1`, the IC50 [2] was 9.51 µM, the IC50 [3] was 0.29 µM and the Ratio IC50 (Rattus norvegicus) was 32.8.

Compound `Cc1ccc(/C=N/NC(=O)C2=C(O)c3ccccc3S(=O)(=O)N2)cc1` has an IC50 [2] of 7.48 µM, an IC50 [3] of 0.64 µM and a Ratio IC50 (Rattus norvegicus) of 11.7.

`C/C(=N\NC(=O)C1=C(O)c2ccccc2S(=O)(=O)N1)c1ccc(Cl)cc1` was tested, and the IC50 [2] was ≥ 100 µM, the IC50 [3] was 10.9 µM and the Ratio IC50 (Rattus norvegicus) was > 9.17.
